pEC50: −log10 of the molar value.
Biological target: T1, hGPR119 (Homo sapiens, UniProt Q8TDV5)
T1 construct: expressed in transfected cells; host or cells: CHO
T1 sequence (Q8TDV5 1-335): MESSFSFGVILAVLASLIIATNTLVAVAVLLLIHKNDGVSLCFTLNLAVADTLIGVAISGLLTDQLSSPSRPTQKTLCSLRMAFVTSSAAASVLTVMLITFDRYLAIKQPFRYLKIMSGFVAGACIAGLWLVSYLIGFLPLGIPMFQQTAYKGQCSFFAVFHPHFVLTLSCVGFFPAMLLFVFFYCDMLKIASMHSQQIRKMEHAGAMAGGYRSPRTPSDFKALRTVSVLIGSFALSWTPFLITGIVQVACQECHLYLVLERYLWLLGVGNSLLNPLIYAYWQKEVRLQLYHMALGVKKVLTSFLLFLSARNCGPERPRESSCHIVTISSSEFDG
Experiment: In vitro cyclic AMP assay (Cisbio dynamic 2 HTRF kit) in CHO-hGPR119 cells
Assay type: cell-based
Conditions: 1 h, cAMP, compound at 1 μM, 60 min, read-out: Induction (% induction at 1 μM)

Compared with `CC(C)c1noc(N2CCC(C(C)Oc3nc4ccc(-c5ccnc(Cl)c5)nc4s3)CC2)n1` (centres unmarked) [Compound 1132, 2-(1-(1-(3-isopropyl-1,2,4-oxadiazol-5-yl)piperidin-4-yl)ethoxy)-5-(2-chloropyridin-4-yl)thiazolo[5,4-b]pyridine], `CC(C)c1noc(N2CCC(C(C)Oc3nc4ccc(-c5ccc(Cl)nc5)nc4s3)CC2)n1` (centres unmarked) [Compound 1142, 2-(1-(1-(3-isopropyl-1,2,4-oxadiazol-5-yl)piperidin-4-yl)ethoxy)-5-(6-chloropyridin-3-yl)thiazolo[5,4-b]pyridine] is higher in activation at 1 µM: 38% for the first, 72% for the second.

First: CC(C)c1noc(N2CCC([C@H](C)Oc3nc4ccc(-c5cnc(S(C)(=O)=O)nc5)nc4s3)CC2)n1 [Compound 1133, 2-((S)-1-(1-(3-isopropyl-1,2,4-oxadiazol-5-yl)piperidin-4-yl)ethoxy)-5-(2-(methylsulfonyl)pyrimidin-5-yl)thiazolo[5,4-b]pyridine]
Second: CC(C)c1noc(N2CCC(C(C)Oc3nc4ccc(-c5cnc(S(C)(=O)=O)cn5)nc4s3)CC2)n1 (centres unmarked) [Compound 1158, 2-(1-(1-(3-isopropyl-1,2,4-oxadiazol-5-yl)piperidin-4-yl)ethoxy)-5-(5-(methylsulfonyl)pyrazin-2-yl)thiazolo[5,4-b]pyridine]
The activation at 1 µM of the first is lower: 55% for the first, 80% for the second.

Going from `CC(C)c1noc(N2CCC(C(C)Oc3nc4ccc(-c5ccnnc5)nc4s3)CC2)n1` (centres unmarked) [Compound 1134, 3-isopropyl-5-(4-(1-((5-(pyridazin-4-yl)thiazolo[5,4-b]pyridin-2-yl)oxy)ethyl)piperidin-1-yl)-1,2,4-oxadiazole] to `CC(C)c1noc(N2CCC([C@H](C)Oc3nc4ccc(-c5ccc(C(F)(F)F)nc5)nc4s3)CC2)n1` [Compound 1152, 2-(1-(1-(3-isopropyl-1,2,4-oxadiazol-5-yl)piperidin-4-yl)ethoxy)-5-(6-(trifluoromethyl)pyridin-3-yl)thiazolo[5,4-b]pyridine], the activation at 1 µM rises from 40% to 77%.

First: C[C@H](Oc1nc2ccc(-c3ccc(S(C)(=O)=O)nc3)nc2s1)C1CCN(c2ncc(Cl)cn2)CC1 [Compound 1136, 2-((S)-1-(1-(5-chloropyrimidin-2-yl)piperidin-4-yl)ethoxy)-5-(6-(methylsulfonyl)pyridin-3-yl)thiazolo[5,4-b]pyridine]
Second: Cc1cnc(N2CCC(C(C)Oc3nc4ccc(-c5ccc(S(C)(=O)=O)nc5)nc4s3)CC2)nc1 (centres unmarked) [Compound 1157, 2-(1-(1-(5-methylpyrimidin-2-yl)piperidin-4-yl)ethoxy)-5-(6-(methylsulfonyl)pyridin-3-yl)thiazolo[5,4-b]pyridine]
The activation at 1 µM of the first is higher: 82% for the first, 81% for the second.

First: CC(Oc1nc2ccc(-c3ccc(S(C)(=O)=O)nc3)nc2s1)C1CCN(c2ncc(C3CC3)cn2)CC1 (centres unmarked) [Compound 1137, 2-(1-(1-(5-cyclopropylpyrimidin-2-yl)piperidin-4-yl)ethoxy)-5-(6-(methylsulfonyl)pyridin-3-yl)thiazolo[5,4-b]pyridine]
Second: CC(Oc1nc2ccc(-c3ccc(S(C)(=O)=O)nc3)nc2s1)C1CCN(c2ncc(C(F)(F)F)cn2)CC1 (centres unmarked) [Compound 1159, 2-(1-(1-(5-(trifluoromethyl)pyrimidin-2-yl)piperidin-4-yl)ethoxy)-5-(6-(methylsulfonyl)pyridin-3-yl)thiazolo[5,4-b]pyridine]
The activation at 1 µM of the first is higher: 73% for the first, 70% for the second.

Going from `CC(=O)N(C)c1ncc(-c2ccc3nc(OC(C)C4CCN(c5nc(C(C)C)no5)CC4)sc3n2)cn1` (centres unmarked) [Compound 1139, N-(5-(2-(1-(1-(3-isopropyl-1,2,4-oxadiazol-5-yl)piperidin-4-yl)ethoxy)thiazolo[5,4-b]pyridin-5-yl)pyrimidin-2-yl)-N-methylacetamide] to `CC(C)c1noc(N2CCC(C(C)Oc3nc4ccc(-c5ccc(N6CCNC6=O)nc5)nc4s3)CC2)n1` (centres unmarked) [Compound 1144, 1-(5-(2-(1-(1-(3-isopropyl-1,2,4-oxadiazol-5-yl)piperidin-4-yl)ethoxy)thiazolo[5,4-b]pyridin-5-yl)pyridin-2-yl)imidazolidin-2-one], the activation at 1 µM rises from 65% to 69%.

Compared with `CC(C)c1noc(N2CCC([C@@H](C)Oc3nc4ccc(-c5ccc(S(C)(=O)=O)nc5)nc4s3)C2)n1` (stereo partly drawn) [Compound 1140, 2-((R)-1-(1-(3-isopropyl-1,2,4-oxadiazol-5-yl)pyrrolidin-3-yl)ethoxy)-5-(6-(methylsulfonyl)pyridin-3-yl)thiazolo[5,4-b]pyridine], `CC(C)c1noc(N2CCC([C@H](C)Oc3nc4ccc(-c5ccc(S(C)(=O)=O)nc5)nc4s3)C2)n1` (stereo partly drawn) [Compound 1141, 2-((S)-1-(-(3-isopropyl-1,2,4-oxadiazol-5-yl)pyrrolidin-3-yl)ethoxy)-5-(6-(methylsulfonyl)pyridin-3-yl)thiazolo[5,4-b]pyridine] is lower in activation at 1 µM: 4% for the first, 3% for the second.

First: CC(C)c1noc(N2CCC(C(C)Oc3nc4ccc(-c5ccc(N6CCCC6=O)nc5)nc4s3)CC2)n1 (centres unmarked) [Compound 1146, 1-(5-(2-(1-(1-(3-isopropyl-1,2,4-oxadiazol-5-yl)piperidin-4-yl)ethoxy)thiazolo[5,4-b]pyridin-5-yl)pyridin-2-yl)pyrrolidin-2-one]
Second: CCc1noc(N2CCC(C(C)Oc3nc4ccc(-c5ccc(S(C)(=O)=O)nc5)nc4s3)CC2)n1 (centres unmarked) [Compound 1156, 2-(1-(1-(3-ethyl-1,2,4-oxadiazol-5-yl)piperidin-4-yl)ethoxy)-5-(6-(methylsulfonyl)pyridin-3-yl)thiazolo[5,4-b]pyridine]
The activation at 1 µM of the first is higher: 61% for the first, 54% for the second.

Compared with `CC(Oc1nc2ccc(-c3ccc(S(C)(=O)=O)cc3)nc2s1)C1CCN(c2cnc(Cl)cn2)CC1` (centres unmarked) [Compound 1148, 2-(1-(1-(5-chloropyrazin-2-yl)piperidin-4-yl)ethoxy)-5-(4-(methylsulfonyl)phenyl)thiazolo[5,4-b]pyridine], `CC(Oc1nc2ccc(-c3ccc(S(C)(=O)=O)nc3)nc2s1)C1CCN(c2cnc(Cl)cn2)CC1` (centres unmarked) [Compound 1151, 2-(1-(1-(5-chloropyrazin-2-yl)piperidin-4-yl)ethoxy)-5-(6-(methylsulfonyl)pyridin-3-yl)thiazolo[5,4-b]pyridine] is lower in activation at 1 µM: 70% for the first, 66% for the second.

Going from `CCc1cnc(N2CCC(C(C)Oc3nc4ccc(-c5ccncc5)nc4s3)CC2)nc1` (centres unmarked) [Compound 1149, 2-(1-(1-(5-ethylpyrimidin-2-yl)piperidin-4-yl)ethoxy)-5-(pyridin-4-yl)thiazolo[5,4-b]pyridine] to `CCCc1cnc(N2CCC(C(C)Oc3nc4ccc(-c5ccncc5)nc4s3)CC2)nc1` (centres unmarked) [Compound 1150, 2-(1-(1-(5-propylpyrimidin-2-yl)piperidin-4-yl)ethoxy)-5-(pyridin-4-yl)thiazolo[5,4-b]pyridine], the activation at 1 µM rises from 64% to 67%.

Going from `CCCc1cnc(N2CCC([C@H](C)Oc3nc4ccc(-c5ccncc5)nc4s3)CC2)nc1` [Compound 1153, 2-((S)-1-(1-(5-propylpyrimidin-2-yl)piperidin-4-yl)ethoxy)-5-(pyridin-4-yl)thiazolo[5,4-b]pyridine] to `CCc1cnc(N2CCC([C@H](C)Oc3nc4ccc(-c5ccc(C(F)(F)F)nc5)nc4s3)CC2)nc1` [Compound 1154, (S)-2-(1-(1-(5-ethylpyrimidin-2-yl)piperidin-4-yl)ethoxy)-5-(6-(trifluoromethyl)pyridin-3-yl)thiazolo[5,4-b]pyridine], the activation at 1 µM falls from 85% to 65%.

Same assay, conditions: cAMP

First: C[C@H](Oc1nc2ccc(-c3ccc(S(C)(=O)=O)nc3)nc2s1)C1CCN(c2ncc(Cl)cn2)CC1 [Compound 1136, 2-((S)-1-(1-(5-chloropyrimidin-2-yl)piperidin-4-yl)ethoxy)-5-(6-(methylsulfonyl)pyridin-3-yl)thiazolo[5,4-b]pyridine]
Second: CCc1cnc(N2CCC([C@H](C)Oc3nc4ccc(-c5ccc(C(F)(F)F)nc5)nc4s3)CC2)nc1 [Compound 1154, (S)-2-(1-(1-(5-ethylpyrimidin-2-yl)piperidin-4-yl)ethoxy)-5-(6-(trifluoromethyl)pyridin-3-yl)thiazolo[5,4-b]pyridine]
The pEC50 of the first is lower: 6.30 to 7.00 for the first, 7.30 to 7.60 for the second. The second is the more potent here.

Compared with `CC(C)c1noc(N2CCC([C@H](C)Oc3nc4ccc(-c5ccc(C(F)(F)F)nc5)nc4s3)CC2)n1` [Compound 1152, 2-(1-(1-(3-isopropyl-1,2,4-oxadiazol-5-yl)piperidin-4-yl)ethoxy)-5-(6-(trifluoromethyl)pyridin-3-yl)thiazolo[5,4-b]pyridine], `CCCc1cnc(N2CCC([C@H](C)Oc3nc4ccc(-c5ccncc5)nc4s3)CC2)nc1` [Compound 1153, 2-((S)-1-(1-(5-propylpyrimidin-2-yl)piperidin-4-yl)ethoxy)-5-(pyridin-4-yl)thiazolo[5,4-b]pyridine] is lower in pEC50: 7.00 to 7.30 for the first, 6.30 to 7.00 for the second. The first is the more potent here.
